The nature of the data set: specification test of 98% trans-resveratrol (FIG. 5): solubility. Particulars: extracted or sieved 98% trans-resveratrol. The class given is physicochemical. The source says:
It may be in powder form and either white or light yellow in color. […] It is also devoid of any significant amounts of metals, bacteria or other adulterants or additives.

Structures are written as SMILES.

As to `Oc1ccc(/C=C/c2cc(O)cc(O)c2)cc1` [trans-resveratrol], the solubility in ethanol result is reported as “soluble in ethanol”.
